± gives the expanded uncertainty stated by the source.
Conditions: 101 kPa, Liquid

Structure (SMILES): CO [methanol]
- mass density (303.15 K): 781.3 ± 1.9 kg/m3
- viscosity (303.15 K): 0.5178 ± 0.028 mPa·s
- mass density (308.15 K): 778.2 ± 2.1 kg/m3
- viscosity (308.15 K): 0.4843 ± 0.026 mPa·s
- mass density (313.15 K): 772.4 ± 2.2 kg/m3
- viscosity (313.15 K): 0.4515 ± 0.025 mPa·s
- mass density (318.15 K): 767.8 ± 2.3 kg/m3
- viscosity (318.15 K): 0.4233 ± 0.024 mPa·s
- mass density (323.15 K): 762.7 ± 2.4 kg/m3
- viscosity (323.15 K): 0.395 ± 0.023 mPa·s

Structure (SMILES): CCCO [propan-1-ol]
- mass density (303.15 K): 795.5 ± 2 kg/m3
- viscosity (303.15 K): 1.733 ± 0.078 mPa·s
- mass density (308.15 K): 791.1 ± 2.1 kg/m3
- viscosity (308.15 K): 1.534 ± 0.07 mPa·s
- mass density (313.15 K): 787 ± 2.2 kg/m3
- viscosity (313.15 K): 1.367 ± 0.063 mPa·s
- mass density (318.15 K): 783.3 ± 2.3 kg/m3
- viscosity (318.15 K): 1.234 ± 0.058 mPa·s
- mass density (323.15 K): 779.5 ± 2.4 kg/m3
- viscosity (323.15 K): 1.1 ± 0.052 mPa·s
